Read-outs that look alike come from different tables or passages of the source.
How the values were obtained:
[1] = test system: H526 tumors; test: In vivo xenograft, human lung (SCLC) H526; conditions: iv weekly
Experimental: Female athymic nu/nu mice (Harlan Laboratories Models, S. L. Barcelona, Spain or Envigo, Spain) were utilized for all experiments. Animal were housed in individually ventilated cages Sealsafe® Plus, Techniplast S.P.A.), up to ten per cage on a 12-hour light-dark cycle at 21-23° C. and 40-60% humidity. Mice were allowed free access to irradiated standard rodent diet (Tecklad 2914C) and sterilized water. Animals were acclimated for at least 5 days prior to tumor implantation with a tumor cell suspension.
H526 cells were grown as a suspension and maintained by addition of fresh medium, as the cell density increases, every 2 to 3 days. Every week, culture was reestablished by centrifugation of the suspension with subsequent resuspension in fresh medium at a concentration of 1×10^5 cell/mL. Each animal was subcutaneously implanted (on the right flank using 26 G needle and a 1 cc syringe) at 4-6 weeks of age with 5×10^6 H526 cells suspended in 0.05 mL of a solution consisting of 50% Matrigel® (Corning Incorporated Life Sciences) and 50% medium without serum or antibiotics.
(§1) Treatment tolerability was assessed by monitoring body weight evolution, clinical signs of systemic toxicity, as well as evidences of local damage in the injection site.
(§2) Treatments producing >20% lethality and/or 20% net body weight loss were considered toxic.

[2] = test system: A2780 tumors
Experimental: (§3) Female athymic nu/nu mice (Harlan Laboratories Models, S. L. Barcelona, Spain or Envigo, Spain) were utilized for all experiments. Animal were housed in individually ventilated cages Sealsafe® Plus, Techniplast S.P.A.), up to ten per cage on a 12-hour light-dark cycle at 21-23° C. and 40-60% humidity. […] Animals were acclimated for at least 5 days prior to tumor implantation with a tumor cell suspension.
Culture cells were passaged every 3 to 5 days upon reaching confluence. Each animal was subcutaneously implanted (on the right flank using 26 G needle and a 1 cc syringe) at 4-6 weeks of age with 10×10^6 A2780 cells suspended in 0.05 mL of a solution consisting of 50% Matrigel® (Corning Incorporated Life Sciences) and 50% medium without serum or antibiotics.
as §1
In xenograft studies with other cell lines: • Tumor volume was calculated using the equation (a·b^2)/2, where a: length (longest diameter) and b: width (shortest diameter) were measured in mm by using digital caliper (Fowler Sylvac, S235PAT).
as §2

[3] = MTD (Maximum Tolerated Dose) determination, single iv administration; assay type: in vivo; conditions: female, mouse, in vivo; mice; iv/SD
Text: Female CD-1 or Athymic Nude-Fox1 nu/nu mice (Envigo) were utilized for all experiments. […] Animals were acclimated for five days prior to being individually tattoo-identified. Animal protocols were reviewed and approved according to the regional Institutional Animal Care and Use Committees.
Mice were randomly allocated into experimental groups and intravenously administered, once for the MTD (Maximum Tolerated Dose) determination or one administration a week during three consecutive weeks, for the MTMD (Maximum Tolerated Multiple Dose) determination study. The animals were administered with white formulation or with compound dissolved in the experimental formulation at different concentrations. The volume administered was always 10 mL/kg. Once administered, animals were monitored for clinical signs of systemic toxicity, changes in body weight and mortality up to 14 days after the administration.

[4] = test system: HT1080 tumors; test: In vivo xenograft, human fibrosarcoma HT1080; conditions: iv weekly, 32 and ET-736 0.5 mg/Kg
Experimental: as §3
HT1080 cells were maintained in vitro at 37° C. with 5% CO2 in Minimum Essential Medium Eagle (MEME) (Sigma-Aldrich, Co). Each animal was orthotopically implanted into gastroecnemius muscle by an intramuscular injection using a 26 G needle and a 1 cc syringe at 4-6 weeks of age, with 10×10^6 HT1080 cells, suspended in serum free medium, without antibiotics.
as §1
In xenograft studies with HT1080 cell line: • Total diameter (tumor+leg) measurements were determined by using digital caliper (Fowler Sylvac, S235PAT).
as §2

## COc1c(C)cc2c(c1O)[C@@H]1[C@@H]3[C@@H]4SC[C@]5(N[C@H](C)Cc6c5[nH]c5ccccc65)C(=O)OC[C@@H](c5c6c(c(C)c(OC(C)=O)c54)OCO6)N3[C@@H](O)[C@H](C2)N1C [C]
[1]; Table 49, Day 0, 39-S […], C 3 mg/Kg
  Median Tumor Volume: 217.9 mm^3
[1]; Table 49, Day 2, 39-S […], C 3 mg/Kg
  Median Tumor Volume: 262.4 mm^3
[1]; Table 49, Day 4, 39-S […], C 3 mg/Kg
  Median Tumor Volume: 108.3 mm^3
[1]; Table 49, Day 7, 39-S […], C 3 mg/Kg
  Median Tumor Volume: 129.8 mm^3
[1]; Table 49, Day 9, 39-S […], C 3 mg/Kg
  Median Tumor Volume: 85.9 mm^3
[1]; Table 49, Day 11, 39-S […], C 3 mg/Kg
  Median Tumor Volume: 52.3 mm^3
[1]; Table 49, Day 14, 39-S […], C 3 mg/Kg
  Median Tumor Volume: 54.1 mm^3
[1]; Table 49, Day 16, 39-S […], C 3 mg/Kg
  Median Tumor Volume: 47.3 mm^3
[1]; Table 49, Day 21, 39-S […], C 3 mg/Kg
  Median Tumor Volume: 4.0 mm^3
[1]; Table 49, Day 28, 39-S […], C 3 mg/Kg
  Median Tumor Volume: 4.0 mm^3
[1]; Table 49, Day 35, 39-S […], C 3 mg/Kg
  Median Tumor Volume: 4.0 mm^3
[1]; Table 49, Day 42, 39-S […], C 3 mg/Kg
  Median Tumor Volume: 62.5 mm^3
[1]; Table 49, Day 49, 39-S […], C 3 mg/Kg
  Median Tumor Volume: 53.5 mm^3
[1]; Table 49, Day 56, 39-S […], C 3 mg/Kg
  Median Tumor Volume: 70.0 mm^3
[1]; Table 49, Day 63, 39-S […], C 3 mg/Kg
  Median Tumor Volume: 132.3 mm^3
[1]; Table 49, Day 70, 39-S […], C 3 mg/Kg
  Median Tumor Volume: 368.5 mm^3
[1]; Table 49, Day 77, 39-S […], C 3 mg/Kg
  Median Tumor Volume: 465.8 mm^3
[1]; Table 49, Day 84, 39-S […], C 3 mg/Kg
  Median Tumor Volume: 107.4 mm^3
[1]; Table 49, Day 91, 39-S […], C 3 mg/Kg
  Median Tumor Volume: 130.0 mm^3
[1]; Table 49, Day 98, 39-S […], C 3 mg/Kg
  Median Tumor Volume: 4.0 mm^3
[1]; Table 49, Day 105, 39-S […], C 3 mg/Kg
  Median Tumor Volume: 4.0 mm^3
[1]; Table 49, Day 112, 39-S […], C 3 mg/Kg
  Median Tumor Volume: 4.0 mm^3
[1]; Table 49, Day 119, 39-S […], C 3 mg/Kg
  Median Tumor Volume: 4.0 mm^3
[1]; Table 49, Day 126, 39-S […], C 3 mg/Kg
  Median Tumor Volume: 4.0 mm^3
[1]; Table 49, Day 133, 39-S […], C 3 mg/Kg
  Median Tumor Volume: 4.0 mm^3
[1]; Table 49, Day 140, 39-S […], C 3 mg/Kg
  Median Tumor Volume: 4.0 mm^3
[1]; Table 49, Day 147, 39-S […], C 3 mg/Kg
  Median Tumor Volume: 4.0 mm^3
[1]; Table 49, Day 165, 39-S […], C 3 mg/Kg
  Median Tumor Volume: 4.0 mm^3
[1]; Table 49, Day 175, 39-S […], C 3 mg/Kg
  Median Tumor Volume: 4.0 mm^3
[1]; Table 49, Day 191, 39-S […], C 3 mg/Kg
  Median Tumor Volume: 4.0 mm^3
[1]; Table 49, Day 205, 39-S […], C 3 mg/Kg
  Median Tumor Volume: 4.0 mm^3
[2]; iv, 3 mg/kg, 0 h
  Median Tumor Volume: 169.6 mm^3
[2]; iv, 3 mg/kg, 48 h
  Median Tumor Volume: 206.3 mm^3
[2]; iv, 3 mg/kg, 120 h
  Median Tumor Volume: 372.7 mm^3
[2]; iv, 3 mg/kg, 168 h
  Median Tumor Volume: 607.6 mm^3
[2]; iv, 3 mg/kg, 336 h
  Median Tumor Volume: 1293.9 mm^3
[2]; iv, 3 mg/kg, 384 h
  Median Tumor Volume: 1683.5 mm^3
[2]; iv, 3 mg/kg, 456 h
  Median Tumor Volume: 2137.5 mm^3
[3]
  MTD at 14 days: 3 mg/kg

## COc1c(C)cc2c(c1O)[C@@H]1[C@@H]3[C@@H]4SC[C@]5(NCCc6c5oc5ccccc65)C(=O)OC[C@@H](c5c6c(c(C)c(OC(C)=O)c54)OCO6)N3[C@@H](O)[C@H](C2)N1C [Compound 32]
[4]; Table 60, Day 2
  Total diameter (tumor + leg): 8.9 mm
[4]; Table 60, Day 5
  Total diameter (tumor + leg): 8.2 mm
[4]; Table 60, Day 7
  Total diameter (tumor + leg): 8.8 mm
[4]; Table 60, Day 9
  Total diameter (tumor + leg): 10.0 mm
[4]; Table 60, Day 12
  Total diameter (tumor + leg): 8.8 mm
[4]; Table 60, Day 14
  Total diameter (tumor + leg): 10.8 mm
[4]; Table 60, Day 16
  Total diameter (tumor + leg): 11.8 mm
[4]; Table 60, Day 19
  Total diameter (tumor + leg): 12.0 mm
[4]; Table 60, Day 21
  Total diameter (tumor + leg): 14.0 mm
[4]; Table 60, Day 23
  Total diameter (tumor + leg): 13.8 mm
[4]; Table 60, Day 27
  Total diameter (tumor + leg): 13.6 mm
[4]; Table 60, Day 30
  Total diameter (tumor + leg): 15.5 mm
[4]; Table 60, Day 33
  Total diameter (tumor + leg): 18.0 mm
[1]; Table 63, Day 0, 32 and ET-736 0.5 mg/Kg
  Median Tumor Volume: 212.1 mm^3
[1]; Table 63, Day 2, 32 and ET-736 0.5 mg/Kg
  Median Tumor Volume: 277.3 mm^3
[1]; Table 63, Day 4, 32 and ET-736 0.5 mg/Kg
  Median Tumor Volume: 127.0 mm^3
[1]; Table 63, Day 7, 32 and ET-736 0.5 mg/Kg
  Median Tumor Volume: 95.0 mm^3
[1]; Table 63, Day 9, 32 and ET-736 0.5 mg/Kg
  Median Tumor Volume: 63.1 mm^3
[1]; Table 63, Day 11, 32 and ET-736 0.5 mg/Kg
  Median Tumor Volume: 62.5 mm^3
[1]; Table 63, Day 14, 32 and ET-736 0.5 mg/Kg
  Median Tumor Volume: 62.5 mm^3
[1]; Table 63, Day 16, 32 and ET-736 0.5 mg/Kg
  Median Tumor Volume: 62.5 mm^3
[1]; Table 63, Day 21, 32 and ET-736 0.5 mg/Kg
  Median Tumor Volume: 4.0 mm^3
[1]; Table 63, Day 28, 32 and ET-736 0.5 mg/Kg
  Median Tumor Volume: 4.0 mm^3
[1]; Table 63, Day 35, 32 and ET-736 0.5 mg/Kg
  Median Tumor Volume: 55.3 mm^3
[1]; Table 63, Day 42, 32 and ET-736 0.5 mg/Kg
  Median Tumor Volume: 85.3 mm^3
[1]; Table 63, Day 49, 32 and ET-736 0.5 mg/Kg
  Median Tumor Volume: 185.6 mm^3
[1]; Table 63, Day 56, 32 and ET-736 0.5 mg/Kg
  Median Tumor Volume: 169.1 mm^3
[1]; Table 63, Day 63, 32 and ET-736 0.5 mg/Kg
  Median Tumor Volume: 62.5 mm^3
[1]; Table 63, Day 70, 32 and ET-736 0.5 mg/Kg
  Median Tumor Volume: 88.9 mm^3
[1]; Table 63, Day 77, 32 and ET-736 0.5 mg/Kg
  Median Tumor Volume: 280.6 mm^3
[1]; Table 63, Day 84, 32 and ET-736 0.5 mg/Kg
  Median Tumor Volume: 694.2 mm^3
[1]; Table 63, Day 91, 32 and ET-736 0.5 mg/Kg
  Median Tumor Volume: 1150.9 mm^3
[2]; Day 0, A2780 xenograft
  Median Tumor Volume: 168.6 mm^3
[2]; Day 2, A2780 xenograft
  Median Tumor Volume: 262.9 mm^3
[2]; Day 5, A2780 xenograft
  Median Tumor Volume: 572.7 mm^3
[2]; Day 7, A2780 xenograft
  Median Tumor Volume: 997.5 mm^3
[2]; Day 9, A2780 xenograft
  Median Tumor Volume: 1359.9 mm^3
[2]; Day 12, A2780 xenograft
  Median Tumor Volume: 1715.0 mm^3
[2]; Day 14, A2780 xenograft
  Median Tumor Volume: 2025.0 mm^3
[2]; Day 16, A2780 xenograft
  Median Tumor Volume: 2025.0 mm^3
[3]
  MTD at 14 days: 0.5 mg/kg
